These results are taken from patent US5574070A, “Substituted guanidines having high binding to the sigma receptor and the use thereof” (priority 1993, dated 1996).

For orientation: IC50 means the concentration that gives 50% inhibition.

Structures are written as SMILES. Read-outs that look alike come from different tables or passages of the source.

One data set has as its system rhesus monkeys. The note with it: introduction of foreign objects into cages; cited from earlier work.
For data set [1], the system named is anxiety behavior of mice. The note with it: mouse, in vivo, ip, 10 mg/kg.
Data set [2] deals with social interaction of rats. Kind of data set: rat social interaction test. Format: in vivo, rat (male Hooded Lister). Particulars: i.p.; 10 min session; n=6, P<0.001.
Source text: A second preferred animal model is the rat social interaction test described by Jones, B. J. et al., supra, wherein the time that two mice spend in social interaction is quantified. […] Both the familiarity and the light level of the test arena may be manipulated. Undrugged rats show the highest level of social interaction when the test arena is familiar and is lit by low light. Social interaction declines if the arena is unfamiliar to the rats or is lit by bright light. Anxiolytic agents prevent this decline. The overall level of motor activity may also be measured to allow detection of drug effects specific to social behaviors.
Male Hooded Lister rats (Glaxo bred, 200-250 g), were housed 5 to a cage and were kept in the laboratory environment for at least a week before testing. Rats paired in the test were taken from separate cages.
The test arena consisted of an open-topped box, 62×62×33 cm with a 7×7 matrix of infra-red photocell beams in the walls, 2.5 cm from the floor.
Testing involved placing each member of a pair of rats in opposite comers of the arena and then leaving them undisturbed for 10 min. while recording their behavior remotely on videotape. The behavioral assessments were made subsequently from the recordings. The time spent in social interaction was measured and expressed as a cumulative total for the 10 min session. The behaviors that comprised social interaction were: following with contact, sniffing (but not sniffing of the hindquarters), crawling over and under, tumbling, boxing and grooming.
Data set [3] has as its system sigma receptor. Kind of data set: [3H]DTG displacement radioligand binding assay, guinea pig brain membranes.
Data set [4] deals with anxiety behavior of mice. The data set is described as follows: black:white test box (light/dark exploration) of mice. The note with it: mouse, in vivo, ip.
For data set [5], the system named is dopamine-stimulated cAMP production. Particulars: in vitro; cited from earlier work.
Data set [6] concerns sigma receptor. Particulars: cited from earlier work.
In data set [7] the test system is D1 subclass of dopamine receptors. Particulars: cited from earlier work.
The test system of the next data set is rats. Particulars: rat, in vivo; cited from earlier work.
Data set [8] relates to D2 class of striatal dopamine receptors. Particulars: cited from earlier work.
The test system of data set [9] is adrenergic, muscarinic, cholinergic, or histaminergic sites. Particulars: cited from earlier work.
Data set [10] relates to mu, delta and kappa receptors. The note with it: cited from earlier work.
Data set [11] has as its system apomorphine-induced mesolimbic behaviors. Particulars: without altering the intensity of stereotypic behaviors; cited from earlier work.
The next data set has as its system dopamine synthesis. Particulars: cited from earlier work.
Data set [12] relates to dopamine-stimulated production of cAMP. Particulars: homogenates of rat striatum and olfactory tubercle; cited from earlier work.
The next data set has as its system anxiety. Particulars: in vivo; cited from earlier work.

In the case of `O=C1CC2(CCCC2)CC(=O)N1CCCCN1CCN(c2ncccn2)CC1` [Buspirone], the “taming of the aggressive response” value with rhesus monkeys is “efficacy in a predictive animal model”.
Take `CN1C(=O)CN=C(c2ccccc2)c2cc(Cl)ccc21` [diazepam, reference compound]: the “sedation: numbers of rears and line crossings” value with anxiety behavior of mice [1] is reported as “decreased significantly showing that the drug was markedly sedative”. Moreover, in [2], the “time spent in social interaction” value is reported as “significantly increased social interactions”. Besides, in the data set on sigma receptor [3], the “displacement of [3H]DTG” value is reported as “no significant displacement”. In the data set with anxiety behavior of mice [4], the “numbers of line crossings and/or rears in the light compartment” value is listed as “increased at the expense of those in the dark compartment” and the “proportion of time in light area / percentage of time in black compartment” value is “dose-dependently increased the proportion of time the mice spent in the larger, lighted area”.
Consider `OC(CCCN1CCN(c2ncc(F)cn2)CC1)c1ccc(F)cc1` (stereo not drawn) [BMY 14802], for which the “inhibition of dopamine-stimulated cAMP production” value in [5] is given as “does not inhibit dopamine-stimulated cAMP production”. Also, in the data set with sigma receptor [6], the “binding to the sigma receptor” value is “binds with relatively high affinity to the sigma receptor” and the “potency of dextrorotatory vs levorotatory enantiomer at inhibiting sigma binding” value is reported as 10 times. Besides, the “interaction with D1 subclass / inhibition of [3H]SCH 23390 binding in vitro” value in data set [7] is reported as “does not appear to interact with the D1 subclass of dopamine receptors”. Further, the catalepsy result with rats is reported as “did not cause catalepsy in rats”. For the same molecule, the “maximal density of [3H]spiperone-labeled D2 site” value in [8] (chronic administration (20 days) to rats) is given as “did not increase the maximal density”. The “inhibition of [3H]spiperone binding to D2” value in data set [8] was “does not inhibit the binding of [^3 H]spiperone”. The “binding to adrenergic, muscarinic, cholinergic, or histaminergic sites” value in [9] is “does not bind to the adrenergic, muscarinic, cholinergic, or histaminergic sites”.
In the case of `C=CCN1CCC2(C)c3cc(O)ccc3CC1C2C` (single isomer, unassigned; (-)) [(-)SKF 10,047, N-allyl-normetazocine, reference compound], the “binding to delta, mu and kappa receptors” value in data set [10] was “apparently labeled the mu and kappa receptors but not the sigma receptors”. Besides, the IC50 at sigma receptor [3] (read-out: IC50 binding values) was determined as 4 ± 0.566 µM; on sigma receptor [3] (read-out: IC50 vs. [3H]DTG), 4 µM.
`C[C@@H]1CN(CCCn2c3ccccc3c3ccccc32)C[C@H](C)N1.Cl.Cl` [rimcazole, cis-9-[3-(3,5-dimethyl-1-piperazinyl)propyl]carbazole dihydrochloride]: the “antagonism of apomorphine-induced mesolimbic behaviors” value in data set [11] is “ability to antagonize apomorphine-induced mesolimbic behaviors selectively”. The “effect on rate of dopamine synthesis” value in the data set with dopamine synthesis was “does not accelerate the rate of dopamine synthesis”. The “effect on dopamine-stimulated cAMP” value in [12] is listed as “does not affect dopamine-stimulated production of cAMP”. In the data set on anxiety, the anxiolytic activity entry is listed as “determined to have anxiolytic activity”.
